Experimental data from publication PMC11447708, “Comprehensive Exploration of Bromophenol Derivatives: Promising Antibacterial Agents against SA and MRSA” (ACS Omega, 2024).
≈ marks a conversion by molar mass, not a printed value. Like-named read-outs stand apart in the source and are kept apart here.

How the values were obtained:
[1] = tested on: S. aureus; parameters: method as in Liu et al.[7]; conditions: bromo benzenediol derivatives; ref Liu et al.[7]; cited from earlier work
[2] = tested on: P. aeruginosa; parameters: method as in Liu et al.[7]; conditions: bromo benzenediol derivatives; ref Liu et al.[7]; cited from earlier work
[3] = tested on: MRSA; experiment: agar well diffusion, zone of inhibition; type: cell-based, Staphylococcus aureus; conditions: for inhibition zone diameter MRSA: concentration (μg): 20 for 1-3, 10 for ampicillin and tobramycin, 30 for tetracycline; for Diameter of zone inhibition on MRSA: Supplement S4, antibiotic standards
Procedure: Staphylococcus aureus ATCC 2793, Pseudomonas aeruginosa ATCC 27853, and P. aeruginosa PA14 were activated, cultured, and stored in a refrigerator at −25 °C in the Laboratory of Biotechnology, Faculty of Chemical, Da Nang University of Science and Technology, The University of Da Nang. The MRSA antibiotic-resistant strain was isolated, identified,[17] and kindly provided by Dr. Ngo Thai Bich Van, Faculty of Chemical, Da Nang University of Science and Technology, The University of Da Nang.
(§1) The susceptibility test was measured in vitro by employing the agar well diffusion method.[20]S. aureus ATCC 2793 and P. aeruginosa ATCC 27853 strains were used in this experiment. A suspension of the test organism was prepared in nutrient broth by overnight culture for 24 h at 37 °C and 7.0 pH. The agar plate surface was inoculated by spreading a volume of the microbial inoculum over the entire agar surface. Then, a hole with a diameter of 6 to 8 mm was punched aseptically with a sterile tip, and a volume (20 μL) of the tested solution at the desired concentration was introduced into the well. Then, agar plates were incubated under suitable conditions depending upon the test microorganism. After incubation, the plates were examined and the diameters of the zone of complete inhibition were observed.

[4] = tested on: P. aeruginosa ATCC 27853; experiment: biofilm formation inhibition, crystal violet assay; type: cell-based, Pseudomonas aeruginosa; conditions: mean ± SD, n = 3
Procedure: Biofilm formation was evaluated utilizing the crystal violet assay.[22] The P. aeruginosa ATCC 27853 strain was used in this experiment. The bacterial attachment was initiated by inoculating the culture medium with approximately 10^7 CFU/mL in polystyrene 96-well plates, followed by incubation at 37 °C for 2 h in aerobic conditions. Subsequent to the attachment phase, the medium was carefully aspirated, and the 96-well plates were rinsed with phosphate-buffered saline (PBS) (pH 7.0) to eliminate unattached cells. The fresh medium, along with tested compounds, was then introduced to assess the inhibitory impact on biofilm formation. Following an 18 h incubation at 37 °C, a crystal violet (CV) assay was conducted. The well plate was washed with PBS to eliminate unattached cells, and a 1% CV solution was added, allowing for a 30 min incubation at room temperature. After this period, the well plate underwent three PBS washes, and absolute ethanol was added, incubating for 15 min. Following the transfer of the stained solution to a new well plate, the absorbance was measured at 595 nm.

[5] = tested on: P. aeruginosa; experiment: microbroth dilution assay (MIC, resazurin); type: cell-based, Pseudomonas aeruginosa; conditions: 18 h, 37 °C; for MIC: Pseudomonas aeruginosa
Procedure: (§2) The antibacterial efficacy of the chosen compounds was assessed through the microbroth dilution assay conducted in 96-well culture plates.[21] A stock solution with a concentration of 20 mg/mL was prepared in dimethyl sulfoxide (DMSO). Subsequently, autoclaved nutrient broth (100 μL) was introduced into the culture plate wells, with the initial row of the microtiter plate receiving 100 μL of the test material. 2-fold serial dilutions of the test compounds were then meticulously executed. To serve as an indicator, 20 μL of 2× resazurin solution was added to each well. Finally, 10 μL of the bacterial suspension was incorporated into each well, yielding a final concentration of 5 × 10^6 CFU/mL. The experiment was conducted in duplicate, and the plates were incubated at 37 °C. After 18 h, the plates were scrutinized for any change in color indicative of bacterial growth.

[6] = tested on: P. aeruginosa ATCC 27853; experiment: agar well diffusion, zone of inhibition; type: cell-based, Pseudomonas aeruginosa; conditions: for inhibition zone diameter P. aeruginosa: concentration (μg): 20 for 1-3, 10 for ampicillin and tobramycin, 30 for tetracycline; for Diameter of zone inhibition on PA: Supplement S4, antibiotic standards
Procedure: as §1

[7] = tested on: HEK-293 cells; experiment: AlamarBlue cell viability assay; type: cell-based; conditions: Homo sapiens, HEK293, 24 h exposure
Procedure: HEK-293 cells were cultured in DMEM containing 25 mM glucose, 10% heat-inactivated fetal bovine serum (FBS), 100 U/mL penicillin, and 100 μg/mL streptomycin. Cells were incubated at 37 °C in a humidified atmosphere containing 95% air and 5% CO2.
[…] Untreated groups were set as the control (100% cell viability). On the 24th, cells were treated with the Invitrogen AlamarBlue cell viability reagent for an additional 2 h. Optical density (OD) values (at wavelengths of 570 and 600 nm) were then recorded. The percentage of cell viability was calculated according to the protocol provided by the manufacturer.

[8] = tested on: S. aureus ATCC 2793; experiment: agar well diffusion, zone of inhibition; type: cell-based, Staphylococcus aureus; conditions: for inhibition zone diameter S. aureus: concentration (μg): 20 for 1-3, 10 for ampicillin and tobramycin, 30 for tetracycline; for Diameter of zone inhibition on SA: Supplement S4, antibiotic standards
Procedure: as §1

[9] = tested on: S. aureus; experiment: microbroth dilution assay (MIC, resazurin); type: cell-based, Staphylococcus aureus; conditions: 18 h, 37 °C; for MIC: Staphylococcus aureus
Procedure: as §2

[10] = tested on: P. aeruginosa ATCC 27853; experiment: swarming motility; type: cell-based, Pseudomonas aeruginosa; conditions: 24 h at 37 °C; for migration distance (mm): swarming, control 100 mm
Procedure: The analysis was performed in Petri dishes with the LB minimal medium supplemented with 0.2% glucose and 0.5% agar, as described by Kearns.[24] Tested compounds were added to the motility agar at the desired concentration. Aliquots (1.0 μL) were taken from P. aeruginosa ATCC 27853 overnight cultures and spotted in the center of each well, and the migration zones were measured after 24 h of incubation at 37 °C. The inhibition rate was calculated as follows: [drawing 1] where Dtreated and Dcontrol are the migration distances in the treated and control samples, respectively.

[11] = tested on: pyocyanin production in the PA14 strain; experiment: pyocyanin inhibition assay (chloroform extraction); type: cell-based, Pseudomonas aeruginosa; conditions: half of the MIC, 12 h, mean ± SD, n = 3
Procedure: Following the specified incubation period, the cultures underwent centrifugation at 10,000 rpm for 10 min, leading to the collection of the supernatant. Subsequently, 3 mL of chloroform was added to 5 mL of the supernatant, and the mixture was vortexed for 20 s. After centrifugation at 5000 rpm for 10 min, the resulting blue layer at the bottom was transferred to a new tube. To each tube, 2 mL of 0.2 M HCl was added and vortexed for 20 s. The sample underwent subsequent centrifugation for 2 min at 5000 rpm, and 1 mL of the resulting pink layer was transferred to cuvettes. A blank was established using 0.2 M HCl. Spectrophotometric measurements were carried out at 520 nm.

[12] = tested on: Staphylcoccus epidermidis; parameters: method as in Liu et al.[7]; conditions: ref Liu et al.[7]; cited from earlier work

## Oc1cc(Cc2cc(O)c(O)c(Br)c2Br)c(Br)c(Br)c1O [compound 7, 4,4′-methylenebis(5,6-dibromo-1,2-benzenediol)]
[1]
  MIC S. aureus: 140 µg/mL (≈ 256 µM)
[2]
  MIC P. aeruginosa: 140 µg/mL (≈ 256 µM)

## CC(=O)c1cc(Br)c(O)c(Br)c1O [compound 3, 3,5-Dibromo-2,4-dihydroxyacetophenone]
[3]
  inhibition zone diameter MRSA: 20 mm
[4]
  biofilm formation inhibition (%): 14%
[5]
  MIC: 780 µg/mL (≈ 2520 µM)
[6]
  inhibition zone diameter P. aeruginosa: 1 mm
[7]
  IC50: > 32 µM
[8]
  inhibition zone diameter S. aureus: 12 mm
[9]
  MIC: 390 µg/mL (≈ 1260 µM)
[10]
  swarming motility inhibition rate (%): 86.5%
  migration distance (mm): 13.5 mm
[11]
  pyocyanin production inhibition (%): 38%

## Oc1cc(COCc2cc(O)c(O)c(Br)c2Br)c(Br)c(Br)c1O [compound 8, bis(2,3-dibromo-4,5-dihydroxybenzyl)ether]
[12]
  MIC on Staphylcoccus epidermidis: 35 µg/mL (≈ 60.6 µM)
[1]
  MIC S. aureus: 70 µg/mL (≈ 121 µM)
[2]
  MIC P. aeruginosa: 70 µg/mL (≈ 121 µM)

## CC(=O)c1c(O)ccc(Br)c1O [compound 2, 3-Bromo-2,6-dihydroxyacetophenone]
[3]
  inhibition zone diameter MRSA: 30 mm
[4]
  biofilm formation inhibition (%): 14%
[5]
  MIC: 780 µg/mL (≈ 3380 µM)
[6]
  inhibition zone diameter P. aeruginosa: 1 mm
[7]
  IC50: 31.1 µM
[8]
  inhibition zone diameter S. aureus: 29 mm
[9]
  MIC: 12 µg/mL (≈ 51.9 µM)
[10]
  swarming motility inhibition rate (%): 86.5%
  migration distance (mm): 13.5 mm
[11]
  pyocyanin production inhibition (%): 52%

## CC1(C)S[C@@H]2[C@H](NC(=O)[C@H](N)c3ccccc3)C(=O)N2[C@H]1C(=O)O [ampicillin]
[3]
  Diameter of zone inhibition on MRSA: 15.5 mm
  inhibition zone diameter MRSA: 18 mm
[5]
  MIC P. aeruginosa: inactive
[6]
  Diameter of zone inhibition on PA: 0 mm
  inhibition zone diameter P. aeruginosa: no observable zone diameter
[8]
  Diameter of zone inhibition on SA: 14.5 mm
  inhibition zone diameter S. aureus: 16 mm
[9]
  MIC S. aureus: 10 µg/mL (≈ 28.6 µM)
  MIC: 10 µg/mL (≈ 28.6 µM)

## CN(C)[C@@H]1C(O)=C(C(N)=O)C(=O)[C@@]2(O)C(O)=C3C(=O)c4c(O)cccc4[C@@](C)(O)[C@H]3C[C@@H]12 [tetracycline]
[3]
  Diameter of zone inhibition on MRSA: 10.25 mm
  inhibition zone diameter MRSA: 12 mm
[5]
  MIC P. aeruginosa: 70 µg/mL (≈ 158 µM)
  MIC: 70 µg/mL (≈ 158 µM)
[6]
  Diameter of zone inhibition on PA: 10.5 mm
  inhibition zone diameter P. aeruginosa: 10 mm
[8]
  Diameter of zone inhibition on SA: 9.75 mm
  inhibition zone diameter S. aureus: 14 mm
[9]
  MIC S. aureus: 30 µg/mL (≈ 67.5 µM)
  MIC: 30 µg/mL (≈ 67.5 µM)

## NC[C@H]1O[C@H](O[C@H]2[C@H](O)[C@@H](O[C@H]3O[C@H](CO)[C@@H](O)[C@H](N)[C@H]3O)[C@H](N)C[C@@H]2N)[C@H](N)C[C@@H]1O [tobramycin]
[3]
  Diameter of zone inhibition on MRSA: 5.5 mm
  inhibition zone diameter MRSA: 12 mm
[5]
  MIC P. aeruginosa: 15 µg/mL (≈ 32.1 µM)
  MIC: 15 µg/mL (≈ 32.1 µM)
[6]
  Diameter of zone inhibition on PA: 5.5 mm
  inhibition zone diameter P. aeruginosa: 15 mm
[8]
  inhibition zone diameter S. aureus: 15 mm
[9]
  MIC S. aureus: 25 µg/mL (≈ 53.5 µM)
  MIC: 25 µg/mL (≈ 53.5 µM)
